The target of experiment [1] is T1, FAAH (Homo sapiens, UniProt O00519).
T1 sequence (O00519 1-579): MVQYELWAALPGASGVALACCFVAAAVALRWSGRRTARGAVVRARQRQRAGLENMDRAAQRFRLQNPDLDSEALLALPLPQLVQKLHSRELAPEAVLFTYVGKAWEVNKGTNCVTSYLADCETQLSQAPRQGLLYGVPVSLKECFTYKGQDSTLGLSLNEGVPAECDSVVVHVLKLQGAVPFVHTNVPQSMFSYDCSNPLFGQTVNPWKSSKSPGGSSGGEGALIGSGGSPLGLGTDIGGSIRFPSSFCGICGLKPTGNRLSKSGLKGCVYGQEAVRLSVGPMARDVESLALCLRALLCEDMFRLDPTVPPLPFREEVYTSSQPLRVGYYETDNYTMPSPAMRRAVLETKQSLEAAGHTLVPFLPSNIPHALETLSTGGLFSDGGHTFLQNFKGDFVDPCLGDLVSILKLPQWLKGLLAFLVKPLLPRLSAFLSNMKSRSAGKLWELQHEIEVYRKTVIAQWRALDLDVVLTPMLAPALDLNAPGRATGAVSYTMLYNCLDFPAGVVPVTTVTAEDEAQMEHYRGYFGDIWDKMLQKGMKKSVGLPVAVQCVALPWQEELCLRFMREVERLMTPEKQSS
Briefly: Assay Method 1: human FAAH assay (3H-anandamide hydrolysis in cell homogenate). Type of experiment: biochemical. On the set-up: expressed in transfected cells; host or cells: SK-N-MC cells stably transfected with human FAAH cDNA (G418 selection); alternatively T84 cell pellets. The essentials: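 Homogenates of T84 cells or SK-N-MC cells stably transfected with human FAAH, in pH 9 Tris/EDTA buffer with 0.02% Triton X-100. Incubated 1 h at rt with compound and 80 nM (final) [3H-ethanolamine]-anandamide. Released 3H-ethanolamine separated on charcoal filters and counted by scintillation.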

The target of experiment [2] is T2, Rat FAAH (Rattus norvegicus, UniProt P97612).
T2 construct: expressed in transfected cells; host or cells: SK-N-MC cells stably transfected with rat FAAH cDNA (G418 selection)
T2 sequence (P97612 1-579): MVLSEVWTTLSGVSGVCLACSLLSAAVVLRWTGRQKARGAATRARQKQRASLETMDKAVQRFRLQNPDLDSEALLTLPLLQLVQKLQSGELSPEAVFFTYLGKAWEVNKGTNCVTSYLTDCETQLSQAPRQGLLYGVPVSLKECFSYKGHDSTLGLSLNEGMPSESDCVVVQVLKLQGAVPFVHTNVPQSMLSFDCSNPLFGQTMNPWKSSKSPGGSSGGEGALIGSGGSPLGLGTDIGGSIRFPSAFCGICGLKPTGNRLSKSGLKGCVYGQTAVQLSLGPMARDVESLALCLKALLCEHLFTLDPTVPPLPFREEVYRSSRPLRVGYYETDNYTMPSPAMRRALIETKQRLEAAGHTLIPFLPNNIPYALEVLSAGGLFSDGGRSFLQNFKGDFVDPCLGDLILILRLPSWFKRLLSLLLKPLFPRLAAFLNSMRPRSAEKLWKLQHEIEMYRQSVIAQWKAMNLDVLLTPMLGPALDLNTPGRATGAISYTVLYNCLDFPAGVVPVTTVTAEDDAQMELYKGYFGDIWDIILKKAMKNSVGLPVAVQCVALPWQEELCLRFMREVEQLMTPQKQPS
Kind of experiment: Assay Method 2: rat FAAH assay (3H-anandamide hydrolysis in cell homogenate). Type of experiment: biochemical. The essentials: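 Homogenates of T84 cells or SK-N-MC cells stably transfected with rat FAAH, in pH 9 Tris/EDTA/glycerol/Triton buffer, incubated 1 h at room temperature with 3H-anandamide. Released labeled ethanolamine separated from substrate on activated charcoal and counted by scintillation; values averaged over runs.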

The structures appear in SMILES notation. Where a name gives a salt, the structure may show the parent alone. Read-outs that look alike come from different tables or passages of the source. A value given as a limit tells only on which side of the number the result lay.

The IC50 is the point on the concentration scale where inhibition reaches its midpoint. Regarding `O=C(Nc1cnccc1Cl)N1CC2(CCN(Cc3cccc(Oc4ccc(Cl)cc4)c3)CC2)C1` [Example 53, 7-[3-(4-Chloro-phenoxy)-benzyl]-2,7-diaza-spiro[3.5]nonane-2-carboxylic acid (4-chloro-pyridin-3-yl)-amide, trifluoroacetic acid salt], the half-maximal inhibitory concentration (IC50) in experiment [1] (read-out: Assay 1 IC50) and in experiment [2] (read-out: Assay 2 IC50) was 10 nM throughout.

For `O=C(Nc1cccnc1Cl)N1CC2(CCN(Cc3cccc(Oc4ccc(Cl)cc4)c3)CC2)C1` [Example 54, 7-[3-(4-Chloro-phenoxy)-benzyl]-2,7-diaza-spiro[3.5]nonane-2-carboxylic acid (2-chloro-pyridin-3-yl)-amide, trifluoroacetic acid salt], the values for the IC50 in experiment [1] (read-out: Assay 1 IC50) and in experiment [2] (read-out: Assay 2 IC50) were 170 nM and 190 nM, respectively.

`O=C(Nc1ccc(N2CCOCC2)nc1)N1CC2(CCN(Cc3cccc(Oc4ccc(Cl)cc4)c3)CC2)C1` [Example 55, 7-[3-(4-Chloro-phenoxy)-benzyl]-2,7-diaza-spiro[3.5]nonane-2-carboxylic acid (6-morpholin-4-yl-pyridin-3-yl)-amide, trifluoroacetic acid salt]: the IC50 in experiment [1] (read-out: Assay 1 IC50) and in experiment [2] (read-out: Assay 2 IC50) was 6930 nM in each case.

Take `O=C(Nc1cc[nH]n1)N1CC2(CCN(Cc3cccc(Oc4ccc(Cl)cc4)c3)CC2)C1` [Example 56, 7-[3-(4-Chloro-phenoxy)-benzyl]-2,7-diaza-spiro[3.5]nonane-2-carboxylic acid (1H-pyrazol-3-yl)-amide, trifluoroacetic acid salt]: the figures for the IC50 in experiment [1] (read-out: Assay 1 IC50) and in experiment [2] were 3690 nM and 1670 nM, respectively.

Consider `O=C(Nc1cncc(Cl)c1)N1CC2(CCN(Cc3cccc(Oc4ccc(Cl)cc4)c3)CC2)C1` [Example 57, 7-[3-(4-Chloro-phenoxy)-benzyl]-2,7-diaza-spiro[3.5]nonane-2-carboxylic acid (5-chloro-pyridin-3-yl)-amide, trifluoroacetic acid salt], for which the half-maximal inhibitory concentration (IC50) in experiment [1] (read-out: Assay 1 IC50) was determined as 260 nM; in experiment [2] (read-out: Assay 2 IC50), 200 nM.

Regarding `O=C(Nc1ccc(F)nc1)N1CC2(CCN(Cc3cccc(Oc4ccc(Cl)cc4)c3)CC2)C1` [Example 58, 7-[3-(4-Chloro-phenoxy)-benzyl]-2,7-diaza-spiro[3.5]nonane-2-carboxylic acid (6-fluoro-pyridin-3-yl)-amide, trifluoroacetic acid salt], the IC50 was found to be 300 nM in experiment [1] (read-out: Assay 1 IC50) and 690 nM in experiment [2] (read-out: Assay 2 IC50).

As to `COc1cc(NC(=O)N2CC3(CCN(Cc4cccc(Oc5ccc(Cl)cc5)c4)CC3)C2)ncn1` [Example 59, 7-[3-(4-Chloro-phenoxy)-benzyl]-2,7-diaza-spiro[3.5]nonane-2-carboxylic acid (6-methoxy-pyrimidin-4-yl)-amide, trifluoroacetic acid salt], the half-maximal inhibitory concentration (IC50) in experiment [1] (read-out: Assay 1 IC50) amounted to 250 nM; in experiment [2] (read-out: Assay 2 IC50) it was 80 nM.

For `O=C(Nc1ccc(Cl)nn1)N1CC2(CCN(Cc3cccc(Oc4ccc(Cl)cc4)c3)CC2)C1` [Example 60, 7-[3-(4-Chloro-phenoxy)-benzyl]-2,7-diaza-spiro[3.5]nonane-2-carboxylic acid (6-chloro-pyridazin-3-yl)-amide, trifluoroacetic acid salt], the IC50 in experiment [1] (read-out: Assay 1 IC50) was determined as 300 nM; in experiment [2] (read-out: Assay 2 IC50) it was 120 nM.

Turning to `Cc1cc(NC(=O)N2CC3(CCN(Cc4cccc(Oc5ccc(Cl)cc5)c4)CC3)C2)nn1C` [Example 61, 7-[3-(4-Chloro-phenoxy)-benzyl]-2,7-diaza-spiro[3.5]nonane-2-carboxylic acid (1,5-dimethyl-1H-pyrazol-3-yl)-amide, trifluoroacetic acid salt], the 50% inhibitory concentration (IC50) in experiment [1] (read-out: Assay 1 IC50) and in experiment [2] (read-out: Assay 2 IC50) was > 10000 nM throughout.

Take `Cn1cc(Br)c(NC(=O)N2CC3(CCN(Cc4cccc(Oc5ccc(Cl)cc5)c4)CC3)C2)n1` [Example 62, 7-[3-(4-Chloro-phenoxy)-benzyl]-2,7-diaza-spiro[3.5]nonane-2-carboxylic acid (4-bromo-1-methyl-1H-pyrazol-3-yl)-amide, trifluoroacetic acid salt]: the IC50 in experiment [1] (read-out: Assay 1 IC50) and in experiment [2] (read-out: Assay 2 IC50) was > 10000 nM in each case.

As to `CCn1nccc1NC(=O)N1CC2(CCN(Cc3cccc(Oc4ccc(Cl)cc4)c3)CC2)C1` [Example 63, 7-[3-(4-Chloro-phenoxy)-benzyl]-2,7-diaza-spiro[3.5]nonane-2-carboxylic acid (2-ethyl-2H-pyrazol-3-yl)-amide, trifluoroacetic acid salt], the IC50 in experiment [1] (read-out: Assay 1 IC50) was 1450 nM; in experiment [2] (read-out: Assay 2 IC50), 500 nM.

As to `O=C(Nc1nnn[nH]1)N1CC2(CCN(Cc3cccc(Oc4ccc(Cl)cc4)c3)CC2)C1` [Example 64, 7-[3-(4-Chloro-phenoxy)-benzyl]-2,7-diaza-spiro[3.5]nonane-2-carboxylic acid (2H-tetrazol-5-yl)-amide, trifluoroacetic acid salt], the results for the IC50 in experiment [1] and in experiment [2] (read-out: Assay 2 IC50) were 3160 nM and 60 nM, respectively.

Regarding `Cc1nc2cc(NC(=O)N3CC4(CCN(Cc5cccc(Oc6ccc(Cl)cc6)c5)CC4)C3)ccc2o1` [Example 65, 7-[3-(4-Chloro-phenoxy)-benzyl]-2,7-diaza-spiro[3.5]nonane-2-carboxylic acid (2-methyl-benzooxazol-5-yl)-amide], the IC50 in experiment [1] (read-out: Assay 1 IC50) stood at 240 nM; in experiment [2] (read-out: Assay 2 IC50), 1060 nM.

As to `O=C(Nc1noc2ncccc12)N1CC2(CCN(Cc3cccc(Oc4ccc(Cl)cc4)c3)CC2)C1` [Example 66, 7-[3-(4-Chloro-phenoxy)-benzyl]-2,7-diaza-spiro[3.5]nonane-2-carboxylic acid isoxazolo[5,4-b]pyridin-3-ylamide, trifluoroacetic acid salt], the IC50 in experiment [1] (read-out: Assay 1 IC50) is 130 nM; in experiment [2] (read-out: Assay 2 IC50) it was 600 nM.

On to `O=C(Nc1noc2cccnc12)N1CC2(CCN(Cc3cccc(Oc4ccc(Cl)cc4)c3)CC2)C1` [Example 67, 7-[3-(4-Chloro-phenoxy)-benzyl]-2,7-diaza-spiro[3.5]nonane-2-carboxylic acid isoxazolo[4,5-b]pyridin-3-ylamide, trifluoroacetic acid salt], for which the IC50 in experiment [1] (read-out: Assay 1 IC50) is 160 nM; in experiment [2] (read-out: Assay 2 IC50), 10 nM.

Take `O=C(Nc1cccc2cn[nH]c12)N1CC2(CCN(Cc3cccc(Oc4ccc(Cl)cc4)c3)CC2)C1` [Example 68, 7-[3-(4-Chloro-phenoxy)-benzyl]-2,7-diaza-spiro[3.5]nonane-2-carboxylic acid (1H-indazol-7-yl)-amide, trifluoroacetic acid salt]: the IC50 in experiment [1] (read-out: Assay 1 IC50) and in experiment [2] (read-out: Assay 2 IC50) was > 10000 nM throughout.

As to `O=C(Nc1ccc2nccn2c1)N1CC2(CCN(Cc3cccc(Oc4ccc(Cl)cc4)c3)CC2)C1` [Example 69, 7-[3-(4-Chloro-phenoxy)-benzyl]-2,7-diaza-spiro[3.5]nonane-2-carboxylic acid imidazo[1,2-a]pyridin-6-ylamide, trifluoroacetic acid salt], the IC50 in experiment [1] (read-out: Assay 1 IC50) and in experiment [2] (read-out: Assay 2 IC50) was > 10000 nM throughout.

For the compound `COc1ccc(NC(=O)N2CC3(CCN(Cc4cccc(Oc5ccc(Cl)cc5)c4)CC3)C2)nn1` [Example 70, 7-[3-(4-Chloro-phenoxy)-benzyl]-2,7-diaza-spiro[3.5]nonane-2-carboxylic acid (6-methoxy-pyridazin-3-yl)-amide, trifluoroacetic acid salt], the IC50 in experiment [1] (read-out: Assay 1 IC50) stood at 3000 nM; in experiment [2] (read-out: Assay 2 IC50), 2400 nM.

Turning to `O=C(Nc1ccnc(C(F)(F)F)n1)N1CC2(CCN(Cc3cccc(Oc4ccc(Cl)cc4)c3)CC2)C1` [Example 71, 7-[3-(4-Chloro-phenoxy)-benzyl]-2,7-diaza-spiro[3.5]nonane-2-carboxylic acid (2-trifluoromethyl-pyrimidin-4-yl)-amide, trifluoroacetic acid salt], the IC50 in experiment [1] (read-out: Assay 1 IC50) was > 10000 nM; in experiment [2] (read-out: Assay 2 IC50), 5000 nM.

Values taken from US20120083476A1, “HETEROARYL-SUBSTITUTED SPIROCYCLIC DIAMINE UREA MODULATORS OF FATTY ACID AMIDE HYDROLASE” (Janssen Pharmaceutica NV, priority 2009, published 2012).
